“Also recorded” adds a separate entry of the source.
Experiments:
UT189 = test: Copper mediated cytotoxicity assay, wild type strain; format: cell-based, E. coli; details: for effect on viability: 20 μM alone, no copper; for effect on copper (II) sulfate toxicity: exogenous addition of 20 μM
Protocol: (§1) Following overnight growth in 50 mL M63 minimal media, bacterial cultures were washed twice in phosphate buffered saline (PBS, Sigma) and centrifuged at 6,500 rpm. Washed cultures were resuspended in fresh M63 minimal media, and normalized to 10^8 CFU/mL for subsequent treatment. Normalized cultures were treated with varying concentrations of copper (II) sulfate and test agent in 2 mL reaction volumes in 6-well tissue culture plates. Samples were incubated for 20 hours at 37° C. with shaking. Bacterial viability was reported as the number of colony forming units per milliliter of the reaction volume post-treatment (CFU/mL).

[1] = Free copper (I) determination with bathocuproine; details: for reduction of copper (II) to copper (I): 20 μM reductant, 17.5 μM copper (II) sulfate
Protocol: Free copper (I) was determined spectrophotometrically using the copper (I) indicator bathocuproine. Briefly, 25 μM bathocuproine, 25 μM apo-yersiniabactin, and 17.5 μM copper (II) sulfate, were used in combination in order-of-addition experiments, as well as alone as controls in PBS. Either 20 μM enterobactin (Sigma) or its catecholate moiety, 2,3-dihydroxybenzoic acid (DHB) were added as bioreductants. Following a 30 minute room temperature incubation, 25 μM bathocuproine was added and copper (I) levels were determined by measuring the visible absorbance at 480 nm of the cuprous-bathocuproine complex. Final concentrations of copper (I) were determined by comparison to a standard curve.

RAW264.7 macrophages = details: 25 mM DPI, data not shown
[2] = system: yersiniabactin biosynthesis; test: Inhibition of yersiniabactin biosynthesis in a urinary pathogenic E. coli strain; format: cell-based
From the text: (§2) The ability of PAS to inhibit yersiniabactin biosynthesis in a urinary pathogenic E. coli strain was examined.

[3] = system: urinary pathogenic E. coli strain; test: In vitro growth of urinary pathogenic E. coli strain; format: cell-based; details: at levels that inhibit yersiniabactin biosynthesis
From the text: as §2

[4] = Superoxide dismutase (SOD) activity, xanthine/xanthine oxidase WST-1 formazan assay; format: biochemical; details: for superoxide dismutase activity (in words) / SOD activity, percentage inhibition rate: WST-formazan assay, no added protein; for superoxide dismutase activity in the presence of protein: 1.0 mg/mL bovine serum albumin
Protocol: Reduction of WST-1 was monitored at 440 nm in a final volume of 100 μL. One unit of activity was defined as the amount of compound which blocked 50% WST-1 reduction under these conditions. […] To determine whether SOD activity is retained in the presence of protein, these experiments were repeated in the presence of 1.0 mg/mL bovine serum albumin (Sigma).

UTI89ΔybtS = test: Copper mediated cytotoxicity assay, yersiniabactin-deficient strain; format: cell-based, E. coli
Protocol: as §1

[5] = UV-Vis spectroscopy of metal interaction; format: physicochemical; details: purified HPTT with Fe (III) and Cu (II)
From the text: At this point, it had been confirmed that HPTT is detectable in vivo in a model UPEC strain that makes yersiniabactin. FIG. 24 confirms that HPTT is detected in wildtype UT189 but not UT189 strains comprising deletions in the yersiniabactin synthesis pathway (ybtS and ybtE). Given that HPTT is being secreted outside the cell and that it is made in relatively high abundance, we wanted to see if HPTT could be performing a specific function for the bacteria, and not simply a transient intermediate along the way to Ybt (FIG. 24). Given that its structure is similar to yersiniabactin, a siderophore, we hypothesized that it could interact with metals. Using solid phase extraction and HPLC, HPTT was purified to homogeneity with no contaminants, as detectable by HPLC. The purified compound was used to look for interactions with iron and copper by UV-Vis spectroscopy.

[6] = system: E. coli clinical isolates; test: Antimicrobial susceptibility of clinical isolates by disk diffusion; format: cell-based; details: for resistant clinical isolates: 337 bacteriuric inpatient clinical isolates
From the text: The samples were collected as part of a Washington University Institutional Review Board-approved prospective study of patients with E. coli bacteriuria (>5×10^4 colony forming units per milliliter) described by Marschall et al.^11 Strains without associated blood culture data were not excluded from this study. Briefly, clinical isolates were collected from male and female patients with significant bacteriuria. Bacterial DNA was extracted using a QIAamp DNA mini kit (Qiagen, Valencia, Calif.). DNA probes for virulence genes were conducted as previously described^11, and the presence of these genes was determined by dot-blot hybridization using a microarray system as described elsewhere (Table 1). E. coli phylogenetic group was determined from hybridization results using the triple genotyping method of Clermont et al.^25 Antimicrobial susceptibility was determined using disk diffusion tests. Bacteriuria was defined as? 5×10^4 colony forming units (CFU)/mL in non-catheterized patients and ≧5×10^3 CFU/mL in catheterized patients, as well as by using the patients' documented urinary symptoms. Pyelonephritis was defined as the presence of flank pain and tenderness and/or fever; sepsis and sepsis-induced hypotension were defined using established clinical criteria. The Microbiology Laboratory at Barnes Jewish Hospital provided clinical antibiogram data.

O=C(O)c1cccc(O)c1O [DHB, 2,3-dihydroxybenzoic acid]
effect on viability (UT189): minimal effect
effect on copper (II) sulfate toxicity (UT189): enhances copper (II) sulfate toxicity
reduction of copper (II) to copper (I) [1]: 93.1%

c1ccc2c(c1)[I+]c1ccccc1-2 [DPI, Diphenyleneiodonium]
oxidative-burst activity (RAW264.7 macrophages): decreased oxidative-burst activity to background levels
phagocytosis (RAW264.7 macrophages): without any gross defect in phagocytosis

Nc1ccc(C(=O)O)c(O)c1 [PAS, Para-aminosalicylic acid]
inhibition of yersiniabactin biosynthesis [2]: selectively inhibits yersiniabactin biosynthesis
inhibition of in vitro growth [3]: did not inhibit in vitro growth; also recorded: without inhibiting growth

CC(C)(C1=N[C@@](C)(C(=O)O)CS1)[C@H](O)[C@@H]1CSC([C@H]2CSC(c3ccccc3O)=N2)N1 (stereo partly drawn) [apo-yersiniabactin]
superoxide dismutase activity (in words) [4]: did not demonstrate superoxide dismutase activity and not
copper (I) bathocuproine signal ([1]; apo-Ybt added before enterobactin or DHB, listed as Apo-yersiniabactin): prevents catechol-dependent reduction
copper (I) bathocuproine signal ([1]; apo-Ybt added before enterobactin or DHB, listed as apo-Ybt): almost completely blocked
copper (I) bathocuproine signal ([1]; enterobactin or DHB added before apo-Ybt): restored the copper (I) signal
cytoprotection from copper toxicity (UTI89ΔybtS; added in 1.5-fold molar excess over copper (II) sulfate): restores growth to untreated wild type levels
effect on bacterial viability (UTI89ΔybtS; in the absence of copper): negligible effect
decrease in viable cells compared to wild type (UTI89ΔybtS; purified apo-Ybt added with 10 μM copper sulfate): 0.024 log

O=S(=O)([O-])[O-].[Cu+2] [copper sulfate, copper (II) sulfate]
reduction of viable colonies (UT189; 10 μM copper (II) sulfate alone): 2.5 log
superoxide dismutase activity in the presence of protein [4]: suppressed
SOD activity, percentage inhibition rate [4]: 33.8%
superoxide dismutase activity (in words) [4]: did not demonstrate any superoxide dismutase like activity
decrease in bacterial viability (UTI89ΔybtS; 10 μM copper sulfate alone): > 3 log CFU/mL

O=C(N[C@H]1COC(=O)[C@@H](NC(=O)c2cccc(O)c2O)COC(=O)[C@@H](NC(=O)c2cccc(O)c2O)COC1=O)c1cccc(O)c1O [enterobactin]
effect on viability (UT189): minimal effect
effect on copper (II) sulfate toxicity (UT189): enhances copper (II) sulfate toxicity
reduction of copper (II) to copper (I) [1]: 84.7%

[Cl][Fe]([Cl])[Cl] [ferric chloride]
superoxide dismutase activity (in words) [4]: did not demonstrate any superoxide dismutase like activity

CC(C)(C1=N[C@@](C)(C(=O)O)CS1)[C@H](O)[C@@H]1CSC([C@H]2CSC(c3ccccc3O)=N2)[N-]1.[Fe] (stereo partly drawn) [ferric complexes of yersiniabactin]
SOD activity, percentage inhibition rate [4]: 41.4%
superoxide dismutase activity (in words) [4]: demonstrated SOD-like activity

bovine Cu/Zn SOD: bovine Cu/Zn superoxide dismutase used as a standard (Sigma S-7571)
superoxide dismutase activity (in words) [4]: completely inhibited superoxide anion formation

copper (II)-salicylate
superoxide dismutase activity in the presence of protein [4]: suppressed; also recorded: quenched
SOD activity, percentage inhibition rate [4]: 61.6%

hydroxphenyl-thiazolinyl-thaizolinyl [HPTT]
UV-Vis spectra in the presence of metal [5]: red-shifted

trimethoprim-sulfamethoxazole [TMP/S]
resistant clinical isolates [6]: 29%
resistant clinical isolates ([6]; listed as trimethoprim/sulfamethoxazole (TMP/S)): 96 (29) total (%)
susceptibility ([6]; fyuA+iroN siderophore genotype (CI community 3, BC 1+3)): highly susceptible
association with phenotypic resistance ([6]; fyuA+iucD strategists (CI community 2, BC 1+2)): moderately with TMP/S resistance
